Assay results published in patent US20250250230A1, “HETEROCYCLIC COMPOUND” (TAKEDA PHARMACEUTICAL COMPANY LIMITED, priority 2022, published 2025).

Molecular target: T1, human orexin type 2 receptor (Homo sapiens, UniProt O43614)
T1 construct: expressed in transfected cells
T1 sequence (O43614 1-444): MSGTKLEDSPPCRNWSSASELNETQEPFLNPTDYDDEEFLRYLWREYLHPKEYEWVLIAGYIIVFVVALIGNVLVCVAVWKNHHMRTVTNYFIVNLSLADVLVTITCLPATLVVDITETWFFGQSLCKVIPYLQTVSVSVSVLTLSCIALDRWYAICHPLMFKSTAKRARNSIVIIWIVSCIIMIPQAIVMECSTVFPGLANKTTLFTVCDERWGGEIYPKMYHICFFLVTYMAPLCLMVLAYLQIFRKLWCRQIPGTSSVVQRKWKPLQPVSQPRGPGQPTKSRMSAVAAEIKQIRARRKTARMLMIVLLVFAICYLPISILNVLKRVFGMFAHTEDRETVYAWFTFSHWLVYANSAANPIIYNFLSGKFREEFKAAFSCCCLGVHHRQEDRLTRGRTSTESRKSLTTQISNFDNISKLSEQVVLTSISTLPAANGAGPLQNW
Assay: Measurement of orexin type 2 receptor agonist activity (calcium fluorescence, Fluo-4 AM, FDSS)
Type: cell-based
Details: test compound 3 μM; CHO cells expressing human OX2 receptor; DMSO = 0%, orexin A (human) = 100%
From the text: To obtain a cell clone stably expressing human orexin type 2 receptor, human orexin type 2 receptor cDNA was inserted into pcDNA3.1(+) plasmid vector (Invitrogen), and a plasmid DNA for expression of human orexin type 2 receptor (pcDNA3.1(+)/hOX2R) was cloned. The plasmid DNA was introduced into CHO-K1 cell by an electroporation method, and human orexin type 2 receptor expressing clone cells were obtained by limiting dilution method by using G418 drug resistance as a selection marker.
CHO cells forcibly expressing human OX2 receptor were seeded in each well of 384 well black transparent bottom plate (BD Falcon) at 10,000 cells/well, and cultured for one day in a 5% CO2 incubator at 37° C. After removal of the medium in the cell plate, assay buffer A containing a calcium indicator (HBSS (Thermo Fisher Scientific), 20 mM HEPES (Thermo Fisher Scientific), 0.1% BSA (Sigma-Aldrich), 2.5 μg/mL Fluo-4 AM (DOJINDO Chemical), 0.08% Pluronic F127 (DOJINDO Chemical), 1.25 mM probenecid (DOJINDO Chemical)) was added at 30 μL/well. The plate was stood for 30 min in a 5% CO2 incubator at 37° C., and further stood at room temperature for 30 min. A test compound prepared by diluting with assay buffer B (HBSS, 20 mM HEPES, 0.1% BSA) was added at 10 μL/well, and the fluorescence value was measured by FDSSμCELL (Hamamatsu Photonics K.K.) every one sec for 1 min, and thereafter every two sec for […]. The activity (%) of the test compound was calculated assuming that variation in the fluorescence value when DMSO was added instead of the test compound was 0%, and variation in the fluorescence value when orexin A (human) (PEPTIDE INSTITUTE, INC.) was added at the final concentration of 10 nM was 100%.

| Structure (SMILES) | OX2R agonist activity (3 μM, %) |
| --- | --- |
| COCC1(C(=O)N2CC[C@H](NS(C)(=O)=O)C2)CC1c1ccccc1-c1c(F)cccc1F (stereo partly drawn) [Example 346, N-{(3S)-1-[(1R,2S)-2-(2′,6′-difluoro[1,1′-biphenyl]-2-yl)-1-(methoxymethyl)cyclopropane-1-carbonyl]pyrrolidin-3-yl}methanesulfonamide, or N-{(3S)-1-[(1S,2R)-2-(2′,6′-difluoro[1,1′-biphenyl]-2-yl)-1-(methoxymethyl)cyclopropane-1-carbonyl]pyrrolidin-3-yl}methanesulfonamide] | 100% |
| CCCS(=O)(=O)NC[C@@H]1[C@H](F)CN1C(=O)[C@@H]1C[C@@]1(F)c1ccc(F)cc1-c1c(F)cccc1F [Example 433, N-({(2R,3R)-3-fluoro-1-[(1S,2S)-2-fluoro-2-(2′,5,6′-trifluoro[1,1′-biphenyl]-2-yl)cyclopropane-1-carbonyl]azetidin-2-yl}methyl)propane-1-sulfonamide] | 95% |
| CS(=O)(=O)N[C@@H]1CN(C(=O)[C@@H]2C[C@H]2c2ccccc2-c2c(F)cccc2F)CC[C@H]1O [Example 269, N-{(3R,4R)-1-[(1R,2R)-2-(2′,6′-difluoro[1,1′-biphenyl]-2-yl)cyclopropane-1-carbonyl]-4-hydroxypiperidin-3-yl}methanesulfonamide] | 100% |
| CS(=O)(=O)NC1CCCN(C(=O)C2CC2c2cc(F)ccc2-c2c(F)cccc2F)C1 (racemic) [Example 98, a mixture of rac-N-{(3R)-1-[(1R,2R)-2-(2′,4,6′-trifluoro[1,1′-biphenyl]-2-yl)cyclopropane-1-carbonyl]piperidin-3-yl}methanesulfonamide and rac-N-{(3S)-1-[(1R,2R)-2-(2′,4,6′-trifluoro[1,1′-biphenyl]-2-yl)cyclopropane-1-carbonyl]piperidin-3-yl}methanesulfonamide] | 56% |
| CC1CN(C(=O)C2CC2c2ccccc2-c2c(F)cccc2F)CCCC1NS(C)(=O)=O (racemic) [Example 217] | 83% |
| Cc1ccccc1-c1ccccc1C1CC1C(=O)N1CCCC(NS(C)(=O)=O)C1 (racemic) [Example 66, a mixture of rac-N-{(3R)-1-[(1R,2R)-2-(2′-methyl[1,1′-biphenyl]-2-yl)cyclopropane-1-carbonyl]piperidin-3-yl}methanesulfonamide and rac-N-{(3S)-1-[(1R,2R)-2-(2′-methyl[1,1′-biphenyl]-2-yl)cyclopropane-1-carbonyl]piperidin-3-yl}methanesulfonamide] | 52% |
| CNS(=O)(=O)NC[C@@H]1CN(C(=O)[C@@H]2C[C@H]2c2ccccc2-c2c(F)cccc2F)CCO1 [Example 337, N-({(2S)-4-[(1R,2R)-2-(2′,6′-difluoro[1,1′-biphenyl]-2-yl)cyclopropane-1-carbonyl]morpholin-2-yl}methyl)-N′-methylsulfuric diamide] | 100% |
| CNS(=O)(=O)NC[C@@H]1[C@H](F)CN1C(=O)C1(COC)CC1c1ccc(F)cc1-c1c(F)cccc1F (stereo partly drawn) [Example 438, N-({(2R,3R)-3-fluoro-1-[(1R,2S)-1-(methoxymethyl)-2-(2′,5,6′-trifluoro[1,1′-biphenyl]-2-yl)cyclopropane-1-carbonyl]azetidin-2-yl}methyl)-N′-methylsulfuric diamide, or N-({(2R,3R)-3-fluoro-1-[(1S,2R)-1-(methoxymethyl)-2-(2′,5,6′-trifluoro[1,1′-biphenyl]-2-yl)cyclopropane-1-carbonyl]azetidin-2-yl}methyl)-N′-methylsulfuric diamide] | 101% |
| COCS(=O)(=O)NC1CCN(C(=O)C2CC2c2ccccc2-c2c(F)cccc2F)C1 (mixture of isomers) [Example 227, a mixture of N-{(3S)-1-[(1R,2R)-2-(2′,6′-difluoro[1,1′-biphenyl]-2-yl)cyclopropane-1-carbonyl]pyrrolidin-3-yl}-1-methoxymethanesulfonamide and N-{(3S)-1-[(1S,2S)-2-(2′,6′-difluoro[1,1′-biphenyl]-2-yl)cyclopropane-1-carbonyl]pyrrolidin-3-yl}-1-methoxymethanesulfonamide] | 85% |
| CS(=O)(=O)NC1CN(C(=O)C2CC2c2ccccc2-c2c(F)cccc2F)CC1F (racemic) [Example 137, a mixture of rac-N-{(3S,4R)-1-[(1R,2R)-2-(2′,6′-difluoro[1,1′-biphenyl]-2-yl)cyclopropane-1-carbonyl]-4-fluoropyrrolidin-3-yl}methanesulfonamide and rac-N-{(3R,4S)-1-[(1R,2R)-2-(2′,6′-difluoro[1,1′-biphenyl]-2-yl)cyclopropane-1-carbonyl]-4-fluoropyrrolidin-3-yl}methanesulfonamide] | 59% |
| CS(=O)(=O)NC1CCCN(C(=O)C2CC2c2c(F)cccc2-c2ccccc2)CC1 (racemic) [Example 95, a mixture of rac-N-{(4R)-1-[(1R,2R)-2-(3-fluoro[1,1′-biphenyl]-2-yl)cyclopropane-1-carbonyl]azepan-4-yl}methanesulfonamide and rac-N-{(4S)-1-[(1R,2R)-2-(3-fluoro[1,1′-biphenyl]-2-yl)cyclopropane-1-carbonyl]azepan-4-yl}methanesulfonamide] | 61% |
| CN(C)S(=O)(=O)NC1CCCN(C(=O)C2CC2c2ccccc2-c2c(F)cccc2F)C1 (racemic) [Example 164, a mixture of rac-N′-{(3R)-1-[(1R,2R)-2-(2′,6′-difluoro[1,1′-biphenyl]-2-yl)cyclopropane-1-carbonyl]piperidin-3-yl}-N,N-dimethylsulfuric diamide and rac-N′-{(3S)-1-[(1R,2R)-2-(2′,6′-difluoro[1,1′-biphenyl]-2-yl)cyclopropane-1-carbonyl]piperidin-3-yl}-N,N-dimethylsulfuric diamide] | 104% |
| O=C([C@@H]1C[C@@]1(F)c1ccc(F)cc1-c1c(F)cccc1F)N1C[C@@H](F)[C@H]1CNS(=O)(=O)N1CCC1 [Example 446, N-({(2R,3R)-3-fluoro-1-[(1S,2S)-2-fluoro-2-(2′,5,6′-trifluoro[1,1′-biphenyl]-2-yl)cyclopropane-1-carbonyl]azetidin-2-yl}methyl)azetidine-1-sulfonamide] | 100% |
| CCS(=O)(=O)NC[C@H]1[C@H](F)CN1C(=O)[C@@H]1C[C@@]1(F)c1ccccc1-c1c(F)cccc1F [Example 417, N-({(2S,3R)-1-[(1S,2S)-2-(2′,6′-difluoro[1,1′-biphenyl]-2-yl)-2-fluorocyclopropane-1-carbonyl]-3-fluoroazetidin-2-yl}methyl)ethanesulfonamide] | 98% |
| CC1C(C(=O)N2CCC[C@H](NS(C)(=O)=O)CC2)C1c1ccccc1-c1c(F)cccc1F (mixture of isomers) [Example 308, a mixture of N-{(4S)-1-[(1R,2R,3S)-2-(2′,6′-difluoro[1,1′-biphenyl]-2-yl)-3-methylcyclopropane-1-carbonyl]azepan-4-yl}methanesulfonamide and N-{(4S)-1-[(1S,2S,3R)-2-(2′,6′-difluoro[1,1′-biphenyl]-2-yl)-3-methylcyclopropane-1-carbonyl]azepan-4-yl}methanesulfonamide] | 100% |
| Cc1scc(-c2c(F)cccc2F)c1C1CC1C(=O)N1CCC(NS(C)(=O)=O)C1 (racemic) [Example 329, a mixture of rac-N-[(3R)-1-{(1R,2R)-2-[4-(2,6-difluorophenyl)-2-methylthiophen-3-yl]cyclopropane-1-carbonyl}pyrrolidin-3-yl]methanesulfonamide and rac-N-[(3S)-1-{(1R,2R)-2-[4-(2,6-difluorophenyl)-2-methylthiophen-3-yl]cyclopropane-1-carbonyl}pyrrolidin-3-yl]methanesulfonamide] | 91% |
| CN(C)S(=O)(=O)NCC1CN(C(=O)[C@@H]2C[C@H]2c2ccccc2-c2c(F)cccc2F)CCO1 (stereo in doubt) [Example 284, N′-({(2R)-4-[(1R,2R)-2-(2′,6′-difluoro[1,1′-biphenyl]-2-yl)cyclopropane-1-carbonyl]morpholin-2-yl}methyl)-N,N-dimethylsulfuric diamide] | 94% |
